In paper PMC7126891 (Bioorganic & Medicinal Chemistry, 2013):
Where two headings read alike, the source gives them in different places.

Assays:
SARS-CoV 3CL^pro [1] = target: T1, SARS-CoV 3CL^pro (Severe acute respiratory syndrome coronavirus, UniProt P0C6X7)
SARS-CoV 3CL^pro [2] = target: T1, SARS-CoV 3CL^pro; type: biochemical
SARS-CoV 3CL^pro [3] = target: T1, SARS-CoV 3CL^pro; experiment: biochemical; type: binding

Row | SMILES | SI (CC50/IC50) (SARS-CoV 3CL^pro [1]) | Cell-free trans-cleavage inhibition type (SARS-CoV 3CL^pro [2]) | further results
1 | Oc1cc(O)cc(Oc2c(O)cc(O)c3c2Oc2c(O)cc4oc5c(Oc6cc(O)cc(O)c6)c(O)cc(O)c5c4c2O3)c1 [Compound 9, phlorofucofuroeckol A] | >1.1 | Competitive (10.6 ± 1.0) | 
2 | Oc1cc(O)cc(Oc2c(Oc3c(O)cc(O)cc3O)cc(O)c3c2Oc2c(O)cc(O)cc2O3)c1 [Compound 5, 2-phloroeckol] | >1.8 | Competitive (24.0 ± 1.5) | fold increase of inhibitory activity versus 7-phloroeckol (6) (SARS-CoV 3CL^pro [2]): ~3 fold
3 | Oc1cc(O)cc(Oc2c(O)cc(O)c3c2Oc2c(O)cc(Oc4c(O)cc(Oc5c(O)cc(O)c6c5Oc5c(O)cc(O)cc5O6)cc4O)cc2O3)c1 [Compound 8, dieckol] | >2.9 | Competitive (2.4 ± 0.2) | kon (SARS-CoV 3CL^pro [3]; read-out: association rate constant kon): 7.35e+07 M⁻¹ s⁻¹; koff (SARS-CoV 3CL^pro [3]; read-out: dissociation rate constant koff): 0.000843 s⁻¹
4 | Oc1cc(O)cc(Oc2c(O)cc(O)c3c2Oc2c(O)cc(Oc4c(O)cc(O)cc4O)cc2O3)c1 [Compound 6, 7-phloroeckol] | >1.8 | Competitive (19.3 ± 1.4) | 
5 | Oc1cc(O)c(Oc2cc(O)cc(O)c2Oc2cc(O)cc(O)c2-c2c(O)cc(O)cc2O)c(O)c1 [Compound 7, fucodiphloroethol G] |  | Competitive (63.5 ± 7.1) | SI (CC50/IC50) (SARS-CoV 3CL^pro [1]; African green monkey): >1.1
6 | Oc1cc(O)c2oc3cc(O)c4oc5cc(O)cc(O)c5oc4c3oc2c1 [Compound 4, dioxinodehydroeckol] | >1.4 |  | 
7 | Oc1cc(O)cc(Oc2c(O)cc(O)c3c2Oc2c(O)cc(O)cc2O3)c1 [Compound 3, eckol] | <1 | Competitive (8.2 ± 0.9) | fold higher activity than triphloretol A (2) (SARS-CoV 3CL^pro [2]): 20 fold
